Test results as given in US20240391923A1, “METHIONINE ADENOSYLTRANSFERASE 2A INHIBITOR FOR TREATING MTAP DELETION-TYPE CANCER” (SUZHOU GENHOUSE BIO CO., LTD., priority 2022, published 2024).
Like-named read-outs stand apart in the source and are kept apart here.

Experiments:
[1] = system: SDMA in HCT116-MTAP-knockout cell line; experiment: Cell symmetric dimethylarginine (SDMA) test, In-cell Western, HCT116-MTAP-knockout; assay type: cell-based; conditions: Homo sapiens, 96 h
[2] = biological target: MAT2A recombinant protein (Homo sapiens, UniProt P31153); experiment: MAT2A inhibitory activity (malachite green colorimetric enzyme assay); assay type: biochemical
Chain of MAT2A recombinant protein (P31153 whole entry): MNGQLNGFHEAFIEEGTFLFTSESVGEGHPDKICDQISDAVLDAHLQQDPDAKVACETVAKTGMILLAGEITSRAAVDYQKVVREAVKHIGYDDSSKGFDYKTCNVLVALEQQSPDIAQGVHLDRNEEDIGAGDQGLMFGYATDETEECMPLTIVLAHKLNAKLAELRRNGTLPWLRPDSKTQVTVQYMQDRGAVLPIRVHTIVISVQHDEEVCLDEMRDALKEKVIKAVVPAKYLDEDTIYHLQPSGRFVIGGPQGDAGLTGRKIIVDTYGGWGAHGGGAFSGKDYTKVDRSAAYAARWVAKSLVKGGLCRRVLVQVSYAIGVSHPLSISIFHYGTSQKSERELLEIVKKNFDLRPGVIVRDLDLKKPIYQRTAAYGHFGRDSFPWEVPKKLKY
Summary of the method: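 Recombinant human MAT2A with L-methionine and ATP in 50 mM HEPES pH 7.5, 50 mM KCl, 10 mM MgCl2, 10 mM DTT, 60 min at room temperature. Phosphate released detected by malachite green reagent (15 min) at 630 nm. Ten-point 1:3 series from 1000 nM final; IC50 by variable-slope non-linear regression.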

[3] = system: SDMA in human colon cancer cell line HCT116; experiment: Cell symmetric dimethylarginine (SDMA) test, In-cell Western, HCT116 (MTAP wild-type); assay type: cell-based; conditions: Homo sapiens, HCT-116, 96 h
Summary of the method: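 HCT116 cells treated 4 days at 37° C with compound, top concentration 6 μM, 1:4 dilutions, 6 points, versus DMSO. Fixed cells stained for SDMA with DRAQ5 normalisation; 800/700 nm ratio after background subtraction fitted by non-linear regression for IC50.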

DOHH-2 cell strain = experiment: Tumor cell proliferation inhibition assay (CellTiter-Glo), DOHH-2; assay type: cell-based; conditions: Homo sapiens, 120 h, DOHH-2 cells, 5-day treatment
Experimental: (§1) After the HCT116-MTAP-knockout (−/−) cell strain, the HCT116-MTAP wild-type(+/+)-cell strain, the DOHH-2 cell strain, or the Hut-78 cell strain was treated with the test compound for 5 days, the ATP level was measured using a CellTiter-Glo kit of Promega to evaluate the inhibition of the test compound against the growth of the tumor cell strain.
(§2) In the present application, the HCT116-MTAP-knockout (−/−) cell strain, the HCT116-MTAP wild-type (+/+)-cell strain, the DOHH-2 cell strain, or the Hut-78 cell strain was seeded into a 96-well cell culture plate at an appropriate cell density. After 24 h, the cells were treated using the test compounds diluted 1:3 fold at the highest concentration of 10 μM for 10 gradients, and a DMSO treatment group was set up separately. The cells were cultured in a 37° C./5% CO2 incubator for 5 days.

[4] = system: HCT116-MTAP-knockout (−/−) cell strain; experiment: Tumor cell proliferation inhibition assay (CellTiter-Glo), HCT116-MTAP-knockout (-/-); assay type: cell-based; conditions: Homo sapiens, 120 h, HCT116-MTAP-knockout (−/−) cells, 5-day treatment
Summary of the method: (§3)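 Read-out: CellTiter-Glo ATP luminescence after 5-day compound exposure at 37° C./5% CO2. Dosing began 24 h post-seeding, 10 μM top, 1:3 dilutions, 10 points; DMSO-treated cells as reference.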

[5] = system: HCT116-MTAP wild-type (+/+)-cell strain; experiment: Tumor cell proliferation inhibition assay (CellTiter-Glo), HCT116-MTAP wild-type (+/+); assay type: cell-based; conditions: Homo sapiens, 120 h, HCT116-MTAP wild-type (+/+) cells, 5-day treatment
Summary of the method: as §3

Hut-78 cell strain = experiment: Tumor cell proliferation inhibition assay (CellTiter-Glo), Hut-78; assay type: cell-based; conditions: Hut-78 cells, 5-day treatment
Experimental: as §1, §2

[6] = IC50 score class, read-out: Cell 96 h SDMA Inhibition (HCT116-MTAP−/−) (score)
[7] = read-out: Cell 96 h SDMA Inhibition (HCT116-MTAP−/−)
[8] = IC50 score class, read-out: MAT2A Inhibition (score)
[9] = IC50 score class, read-out: Cell 96 h SDMA Inhibition (HCT116-MTAP+/+) (score)
[10] = read-out: Cell 96 h SDMA inhibition (HCT116-MTAP+/+)
[11] = IC50 score, read-out: Tumor cell 5-day relative growth inhibition (DOHH-2) (nM), score
[12] = IC50 value, read-out: Tumor cell 5-day relative growth inhibition (DOHH-2)
[13] = IC50 score, read-out: Tumor cell 5-day relative growth inhibition (HCT116-MTAP−/−) (nM), score
[14] = IC50 value, read-out: Tumor cell 5-day relative growth inhibition (HCT116-MTAP−/−)
[15] = IC50 score, read-out: Tumor cell 5-day relative growth inhibition (HCT116-MTAP+/+) (nM), score
[16] = IC50 value, read-out: Tumor cell 5-day relative growth inhibition (HCT116-MTAP+/+)
[17] = Homo sapiens, HuT78, 120 h, IC50 score, read-out: Tumor cell 5-day relative growth inhibition (Hut-78) (nM), score
[18] = Homo sapiens, HuT78, 120 h, IC50 value, read-out: Tumor cell 5-day relative growth inhibition (Hut-78)

COCCn1cc2c(n1)c(=O)n(-c1cccnc1)c1cc(Cl)ccc21 [Compound B45]
IC50 [1, 6]: < 200 nM
IC50 [1, 7]: 132 nM
IC50 [2, 8]: < 100 nM
IC50 ([2]; read-out: MAT2A Inhibition): 27.4 nM
IC50 [3, 9]: > 3000 nM
IC50 [3, 10]: 3220 nM
IC50 (DOHH-2 cell strain; [11]): ≥ 2000 nM
IC50 (DOHH-2 cell strain; [12]): 2020 nM

O=c1c2nn(C3CC3)cc2c2ccc(C(F)(F)F)nc2n1-c1cccnc1 [Compound B215]
IC50 [4, 13]: < 500 nM
IC50 [4, 14]: 104 nM
IC50 [1, 6]: 200 to 1000 nM
IC50 [1, 7]: 210 nM
IC50 [5, 15]: ≥ 2000 nM
IC50 [5, 16]: 4200 nM
IC50 [2, 8]: < 100 nM
IC50 ([2]; read-out: MAT2A Inhibition): 21.7 nM
IC50 [3, 9]: 1000 to 3000 nM
IC50 [3, 10]: 1180 nM
IC50 (Hut-78 cell strain; [17]): < 500 nM
IC50 (Hut-78 cell strain; [18]): 310 nM

CCn1cc2c(n1)c(=O)n(-c1cccc(C#N)c1)c1cc(Cl)ccc21 [Compound B9]
IC50 [1, 6]: 200 to 1000 nM
IC50 [1, 7]: 328 nM
IC50 [3, 9]: 1000 to 3000 nM
IC50 [3, 10]: 2350 nM
IC50 (DOHH-2 cell strain; [11]): 500 to 2000 nM
IC50 (DOHH-2 cell strain; [12]): 1090 nM

Cn1cc2c(n1)c(=O)n(-c1cccnc1)c1cc(C3CC3)ccc21 [Compound B70]
IC50 [1, 6]: 200 to 1000 nM
IC50 [1, 7]: 375 nM
IC50 [3, 9]: 1000 to 3000 nM
IC50 [3, 10]: 1550 nM
IC50 (DOHH-2 cell strain; [11]): 500 to 2000 nM
IC50 (DOHH-2 cell strain; [12]): 1930 nM

O=c1c2nn(CCO)cc2c2ccc(Cl)cc2n1-c1cccnc1 [Compound B46]
IC50 [1, 6]: 200 to 1000 nM
IC50 [1, 7]: 236 nM
IC50 [3, 9]: > 3000 nM
IC50 [3, 10]: 19400 nM
IC50 (DOHH-2 cell strain; [11]): ≥ 2000 nM
IC50 (DOHH-2 cell strain; [12]): 6030 nM

Cc1ncccc1-n1c(=O)c2nn(C)c(C)c2c2ccc(C(F)(F)F)nc21 [Compound B189]
IC50 [4, 13]: < 500 nM
IC50 [4, 14]: 13.6 nM
IC50 [1, 6]: < 200 nM
IC50 [1, 7]: 12.3 nM
IC50 [5, 15]: < 500 nM
IC50 [5, 16]: 488 nM
IC50 [2, 8]: < 100 nM
IC50 ([2]; read-out: MAT2A Inhibition): 39.7 nM
IC50 [3, 9]: 200 to 1000 nM
IC50 [3, 10]: 561 nM
IC50 (Hut-78 cell strain; [17]): < 500 nM
IC50 (Hut-78 cell strain; [18]): 49.2 nM

Cc1ncccc1-n1c(=O)c2n[nH]cc2c2ccc(C(F)(F)F)nc21 [Compound B96]
IC50 [4, 13]: < 500 nM
IC50 [4, 14]: 5.14 nM
IC50 [1, 6]: < 200 nM
IC50 [1, 7]: 5.2 nM
IC50 [5, 15]: < 500 nM
IC50 [5, 16]: 293 nM
IC50 [2, 8]: < 100 nM
IC50 ([2]; read-out: MAT2A Inhibition): 29.4 nM
IC50 [3, 9]: < 200 nM
IC50 [3, 10]: 158 nM
IC50 (Hut-78 cell strain; [17]): < 500 nM
IC50 (Hut-78 cell strain; [18]): 27.2 nM

Cc1ncccc1-n1c(=O)c2nn(CC3CC3)cc2c2ccc(C(F)(F)F)nc21 [Compound B191]
IC50 [4, 13]: < 500 nM
IC50 [4, 14]: 35.6 nM
IC50 [1, 6]: < 200 nM
IC50 [1, 7]: 29.3 nM
IC50 [5, 15]: 500 to 2000 nM
IC50 [5, 16]: 942 nM
IC50 [2, 8]: < 100 nM
IC50 ([2]; read-out: MAT2A Inhibition): 41 nM
IC50 [3, 9]: 1000 to 3000 nM
IC50 [3, 10]: 1290 nM
IC50 (Hut-78 cell strain; [17]): < 500 nM
IC50 (Hut-78 cell strain; [18]): 95.6 nM

Cc1ncccc1-n1c(=O)c2nn(C)cc2c2ccc(Cl)cc21 [Compound B233]
IC50 [4, 13]: < 500 nM
IC50 [4, 14]: 15.5 nM
IC50 [1, 6]: < 200 nM
IC50 [1, 7]: 6.35 nM
IC50 [5, 15]: < 500 nM
IC50 [5, 16]: 135 nM
IC50 [2, 8]: < 100 nM
IC50 ([2]; read-out: MAT2A Inhibition): 13.4 nM
IC50 [3, 9]: 200 to 1000 nM
IC50 [3, 10]: 250 nM
IC50 (Hut-78 cell strain; [17]): < 500 nM
IC50 (Hut-78 cell strain; IC50 value, read-out: Tumor cell 5-day relative growth inhibition (Hut-78)): 8.05 nM

Cn1cc2c(n1)c(=O)n(-c1cccnc1)c1nc(C3CC3)ccc21 [Compound B71]
IC50 [1, 6]: 200 to 1000 nM
IC50 [1, 7]: 203 nM
IC50 [3, 9]: 1000 to 3000 nM
IC50 [3, 10]: 1270 nM
IC50 (DOHH-2 cell strain; [11]): 500 to 2000 nM
IC50 (DOHH-2 cell strain; [12]): 1290 nM
